Measured values reported in ChEMBL document CHEMBL6109086, “Discovery and biological evaluation of hederagenin derivatives as non-substrate inhibitors of P-glycoprotein-mediated multidrug resistance” (Eur J Med Chem, 2025).

Key:
[1] = Reversal of multi-drug resistance in human KBV cells assessed as paclitaxel induced cytotoxicity by measuring cell survival at 10 uM measured after 72 hrs by MTT assay relative to control; format: functional
[2] = Cytotoxicity against human KBV cells assessed as paclitaxel induced cytotoxicity by measuring cell survival at 10 uM measured after 72 hrs by MTT assay relative to control; format: functional

CC1(C)CC[C@]2(C(=O)OCC(=O)NCc3cnccn3)CC[C@]3(C)C(=CC[C@@H]4[C@@]5(C)Cc6nccnc6[C@@](C)(CO)[C@@H]5CC[C@]43C)[C@@H]2C1
Activity [1]: 40.44%
Activity [2]: 97.94%

CC1(C)CC[C@]2(C(=O)NCCCC(=O)OCCOCCOCCOCCO)CC[C@]3(C)C(=CC[C@@H]4[C@@]5(C)Cc6nccnc6[C@@](C)(CO)[C@@H]5CC[C@]43C)[C@@H]2C1
Activity [1]: 28.96%
Activity [2]: 93.67%

CC(C)[C@H](N)C(=O)NCC(=O)NCCNC(=O)[C@]12CCC(C)(C)C[C@H]1C1=CC[C@@H]3[C@@]4(C)Cc5nccnc5[C@@](C)(CO)[C@@H]4CC[C@@]3(C)[C@]1(C)CC2
Activity [1]: 27.74%
Activity [2]: 97.4%

CC1(C)CC[C@]2(C(=O)NCC(=O)OCCOCCOCCOCCOCCO)CC[C@]3(C)C(=CC[C@@H]4[C@@]5(C)Cc6nccnc6[C@@](C)(CO)[C@@H]5CC[C@]43C)[C@@H]2C1
Activity [1]: 78.98%
Activity [2]: 77.18%

COC(=O)[C@H](Cc1ccccc1)NC(=O)COC(=O)[C@]12CCC(C)(C)C[C@H]1C1=CC[C@@H]3[C@@]4(C)Cc5nccnc5[C@@](C)(CO)[C@@H]4CC[C@@]3(C)[C@]1(C)CC2
Activity [1]: 38.69%
Activity [2]: 90.77%

CC1(C)CC[C@]2(C(=O)OCC(=O)OCc3ncco3)CC[C@]3(C)C(=CC[C@@H]4[C@@]5(C)Cc6nccnc6[C@@](C)(CO)[C@@H]5CC[C@]43C)[C@@H]2C1
Activity [1]: 26.03%
Activity [2]: 62.38%

COC(=O)CC[C@H](NC(=O)COC(=O)[C@]12CCC(C)(C)C[C@H]1C1=CC[C@@H]3[C@@]4(C)Cc5nccnc5[C@@](C)(CO)[C@@H]4CC[C@@]3(C)[C@]1(C)CC2)C(=O)OC
Activity [1]: 40.07%
Activity [2]: 92.53%

CC(C)C[C@H](N)C(=O)NCC(=O)NCCNC(=O)[C@]12CCC(C)(C)C[C@H]1C1=CC[C@@H]3[C@@]4(C)Cc5nccnc5[C@@](C)(CO)[C@@H]4CC[C@@]3(C)[C@]1(C)CC2
Activity [1]: 96.68%
Activity [2]: 98.91%

CC1(C)CC[C@]2(C(=O)OCC(=O)OCc3ccncc3)CC[C@]3(C)C(=CC[C@@H]4[C@@]5(C)Cc6nccnc6[C@@](C)(CO)[C@@H]5CC[C@]43C)[C@@H]2C1
Activity [1]: 46.31%
Activity [2]: 109.15%

COC(=O)[C@H](CC(C)C)NC(=O)COC(=O)[C@]12CCC(C)(C)C[C@H]1C1=CC[C@@H]3[C@@]4(C)Cc5nccnc5[C@@](C)(CO)[C@@H]4CC[C@@]3(C)[C@]1(C)CC2
Activity [1]: 38.41%
Activity [2]: 85.1%

CC1(C)CC[C@]2(C(=O)NCCCC(=O)OCCOCCOCCO)CC[C@]3(C)C(=CC[C@@H]4[C@@]5(C)Cc6nccnc6[C@@](C)(CO)[C@@H]5CC[C@]43C)[C@@H]2C1
Activity [1]: 63.88%
Activity [2]: 96.02%

CC1(C)CC[C@]2(C(=O)OCC(=O)OCc3cnccn3)CC[C@]3(C)C(=CC[C@@H]4[C@@]5(C)Cc6nccnc6[C@@](C)(CO)[C@@H]5CC[C@]43C)[C@@H]2C1
Activity [1]: 53.78%
Activity [2]: 121.45%

CC1(C)CC[C@]2(C(=O)NCCNC(=O)CNC(=O)CN)CC[C@]3(C)C(=CC[C@@H]4[C@@]5(C)Cc6nccnc6[C@@](C)(CO)[C@@H]5CC[C@]43C)[C@@H]2C1
Activity [1]: 87.67%
Activity [2]: 91.41%

CC1(C)CC[C@]2(C(=O)OCC(=O)OCc3nccs3)CC[C@]3(C)C(=CC[C@@H]4[C@@]5(C)Cc6nccnc6[C@@](C)(CO)[C@@H]5CC[C@]43C)[C@@H]2C1
Activity [1]: 43.84%
Activity [2]: 105.92%

CC1(C)CC[C@]2(C(=O)NCCCC(=O)OCCOCCO)CC[C@]3(C)C(=CC[C@@H]4[C@@]5(C)Cc6nccnc6[C@@](C)(CO)[C@@H]5CC[C@]43C)[C@@H]2C1
Activity [1]: 70.13%
Activity [2]: 91.43%

CC(C)[C@H](N)C(=O)N[C@H](C(=O)NCCNC(=O)[C@]12CCC(C)(C)C[C@H]1C1=CC[C@@H]3[C@@]4(C)Cc5nccnc5[C@@](C)(CO)[C@@H]4CC[C@@]3(C)[C@]1(C)CC2)C(C)C
Activity [1]: 89.43%
Activity [2]: 87.47%

COC(=O)C[C@H](NC(=O)COC(=O)[C@]12CCC(C)(C)C[C@H]1C1=CC[C@@H]3[C@@]4(C)Cc5nccnc5[C@@](C)(CO)[C@@H]4CC[C@@]3(C)[C@]1(C)CC2)C(=O)OC
Activity [1]: 35.97%
Activity [2]: 79.2%

CC1(C)CC[C@]2(C(=O)NCC(=O)OCCOCCO)CC[C@]3(C)C(=CC[C@@H]4[C@@]5(C)Cc6nccnc6[C@@](C)(CO)[C@@H]5CC[C@]43C)[C@@H]2C1
Activity [1]: 84.84%
Activity [2]: 94.99%

CC1(C)CC[C@]2(C(=O)OCC(=O)NCC3CCOCC3)CC[C@]3(C)C(=CC[C@@H]4[C@@]5(C)Cc6nccnc6[C@@](C)(CO)[C@@H]5CC[C@]43C)[C@@H]2C1
Activity [1]: 30.34%
Activity [2]: 78.91%

CC1(C)CC[C@]2(C(=O)OCC(=O)NCc3cccs3)CC[C@]3(C)C(=CC[C@@H]4[C@@]5(C)Cc6nccnc6[C@@](C)(CO)[C@@H]5CC[C@]43C)[C@@H]2C1
Activity [1]: 25.86%
Activity [2]: 54.97%

CC1(C)CC[C@]2(C(=O)OCC(=O)NCc3ccccn3)CC[C@]3(C)C(=CC[C@@H]4[C@@]5(C)Cc6nccnc6[C@@](C)(CO)[C@@H]5CC[C@]43C)[C@@H]2C1
Activity [1]: 33.22%
Activity [2]: 82.98%

C[C@H](N)C(=O)N[C@@H](C)C(=O)NCCNC(=O)[C@]12CCC(C)(C)C[C@H]1C1=CC[C@@H]3[C@@]4(C)Cc5nccnc5[C@@](C)(CO)[C@@H]4CC[C@@]3(C)[C@]1(C)CC2
Activity [1]: 28.53%
Activity [2]: 92.74%

CC1(C)CC[C@]2(C(=O)OCC(=O)NCc3ncccn3)CC[C@]3(C)C(=CC[C@@H]4[C@@]5(C)Cc6nccnc6[C@@](C)(CO)[C@@H]5CC[C@]43C)[C@@H]2C1
Activity [1]: 39.38%
Activity [2]: 90.35%

CC1(C)CC[C@]2(C(=O)OCC(=O)OCC3CCO3)CC[C@]3(C)C(=CC[C@@H]4[C@@]5(C)Cc6nccnc6[C@@](C)(CO)[C@@H]5CC[C@]43C)[C@@H]2C1 (stereo partly drawn)
Activity [1]: 48.06%
Activity [2]: 106.82%

CC1(C)CC[C@]2(C(=O)NCCCC(=O)OCCOCCOCCOCCOCCO)CC[C@]3(C)C(=CC[C@@H]4[C@@]5(C)Cc6nccnc6[C@@](C)(CO)[C@@H]5CC[C@]43C)[C@@H]2C1
Activity [1]: 27.02%
Activity [2]: 94.86%

COC(=O)[C@H](CCSC)NC(=O)COC(=O)[C@]12CCC(C)(C)C[C@H]1C1=CC[C@@H]3[C@@]4(C)Cc5nccnc5[C@@](C)(CO)[C@@H]4CC[C@@]3(C)[C@]1(C)CC2
Activity [1]: 37.17%
Activity [2]: 79.95%

CC1(C)CC[C@]2(C(=O)NCC(=O)OCCOCCOCCOCCOCCOCCOCCOCCOCCO)CC[C@]3(C)C(=CC[C@@H]4[C@@]5(C)Cc6nccnc6[C@@](C)(CO)[C@@H]5CC[C@]43C)[C@@H]2C1
Activity [1]: 74.02%
Activity [2]: 79.04%

CC1(C)CC[C@]2(C(=O)NCC(=O)OCCOCCOCCO)CC[C@]3(C)C(=CC[C@@H]4[C@@]5(C)Cc6nccnc6[C@@](C)(CO)[C@@H]5CC[C@]43C)[C@@H]2C1
Activity [1]: 67.88%
Activity [2]: 86.82%

CC1(C)CC[C@]2(C(=O)NCC(=O)OCCOCCOCCOCCO)CC[C@]3(C)C(=CC[C@@H]4[C@@]5(C)Cc6nccnc6[C@@](C)(CO)[C@@H]5CC[C@]43C)[C@@H]2C1
Activity [1]: 83.46%
Activity [2]: 90.96%
